The values below come from paper PMC5435687 (Scientific Reports, 2017).

Data set [1] has as its system SH-SY5Y cells. Description: Flow cytometry quantification of cellular uptake and clearance. The class given is cell-based, human. Conditions: 500 nM, up to 3 days, 500 nM to 2.5 µM for 5 h. On the procedure:
SH-SY5Y cells were grown in a 1:1 mixture of minimal essential medium (MEM) and nutrient mixture F-12 Ham supplemented with 10% heat-inactivated fetal bovine serum, 1% MEM non-essential amino acids and 2 mM L-glutamine. The cells were detached (trypsin-EDTA 0.05%, 5 minutes) and passaged twice a week. Cells were plated 1day prior to experiments in either flat-bottomed 96 well plates (Nunc; 60,000 cells/well for experiments <1day and 20,000 cells/well for experiments ≥1day) for flow cytometry or in glass-bottomed culture dishes (MatTek; 25,000 cells/14 mm dish) for microscopy.
Flow cytometry was used to quantify cellular uptake. […] All samples were kept on ice until they were analysed on a Guava EasyCyte 8HT (Millipore, Darmstadt, Germany) that automatically retrieves samples from a 96-well plate. […] The cell counting gate was determined using propidium iodide (0.5 µM, not washed away prior to analysis) and calcein-AM (10 nM, 15 min staining) to distinguish live and dead cells, and for each sample 5,000 cells from within the live gate were counted and analysed. HF488, AlexaFluor488, EGFP and calcein-AM were excited by a 488 nm laser and their fluorescence was detected through a 525/30 nm filter. Propidium iodide and mRFP were excited by the 488 nm laser but detected through a 692/46 nm filter. HF647 and AlexaFluor647 were excited with a 635 nm laser and detected through a 661/19 nm filter. […]
(In general: A flow cytometer gives signals particle by particle.)

For data set [2], the system named is SH-SY5Y cells. As to the kind of experiment: Aβ uptake under pharmacological inhibition of endocytic mechanisms (flow cytometry). The data set is classed as cell-based, human. Conditions: for effect of CPZ on Aβ uptake: 5 µg/ml CPZ; for reduction in Aβ uptake with cytochalasin A or D: 10 µM cytochalasin A or 25 µg/ml cytochalasin D. On the procedure:
Flow cytometry was used to quantify cellular uptake. […] For experiments including Trf B-27 was omitted, as outlined above. […] All samples were kept on ice until they were analysed on a Guava EasyCyte 8HT (Millipore, Darmstadt, Germany) that automatically retrieves samples from a 96-well plate. In order to exclude effects due to difference in delay time we used mixed order of analysis, loading only a few samples at a time with the remaining samples kept on ice. The cell counting gate was determined using propidium iodide (0.5 µM, not washed away prior to analysis) and calcein-AM (10 nM, 15 min staining) to distinguish live and dead cells, and for each sample 5,000 cells from within the live gate were counted and analysed. HF488, AlexaFluor488, EGFP and calcein-AM were excited by a 488 nm laser and their fluorescence was detected through a 525/30 nm filter. Propidium iodide and mRFP were excited by the 488 nm laser but detected through a 692/46 nm filter. HF647 and AlexaFluor647 were excited with a 635 nm laser and detected through a 661/19 nm filter. Compensation was performed to adjust for bleed through in experiments including mRFP. Mean cellular uptake was estimated as the average fluorescence intensity of all cells gated within the live region and all individual experiments were performed with three technical replicates (n = 3) unless else is stated. The average fluorescence intensity was baseline corrected by subtracting the signal for unstained cells.
Endocytic mechanisms were also perturbed by treatment of cells with pharmacological inhibitors. Stock solutions of cytochalasin A, cytochalasin D, dynasore, wortmannin and IPA-3 were prepared in DMSO and diluted in serum-free cell culture media supplemented with 30 mM HEPES on the day of the experiment. The final DMSO concentration added to the cells was kept <0.1% and matched for the control. […] The cells were centrifuged 1000 * g for 5 min at 4 °C, washed 3x with ice-cold serum-free medium, followed by detachment and immediate flow cytometry analysis, as detailed above. […] Only the live cells were included in the analysis. Trf was used as a positive control for clathrin-mediated endocytosis. Due to the rapid uptake and recycling of internalized Trf we adopted an optimized protocol with sufficiently short Trf incubation times. First, to remove the quantities of membrane-bound Trf that originate from the serum component of the complete culture medium the cells were washed 3x in serum-free medium. The cells were then subjected to the inhibitors as described above and thereafter exposed to a 5 min pulse of 5 µg/ml Trf. To remove externally bound fluorescently labelled Trf the cells were thereafter washed (3x/2 min) in ice-cold acidic buffer (0.1 M Glycine-HCl buffer pH 2.5 with 150 mM NaCl)[35] whilst kept on ice. The cells were then harvested for flow cytometry analysis, and analysed one sample at a time with mixed order of analysis whilst keeping the remaining samples on ice.

Where [3] appears, read: 1 µM HF488-labelled Aβ 1 h, 4 independent experiments in triplicate.
Setting [4] is: 30 min pre-incubation, 1 µM Aβ 1 h, n = 3.

As to “Aβ(1–40): Synthetic 40 residue amyloid-β peptide conjugated to HiLyte Fluor HF488 (or HF647) at the N-terminus, from Anaspec”, the “saturation of intracellular concentration” value in the data set with SH-SY5Y cells [1] is reported as “neither Aβ(1–40) nor Aβ(1–42) appears to saturate”. For the same substance, in the data set with SH-SY5Y cells [2] (setting [3]), the “effect of CPZ on Aβ uptake” value is reported as “reductions”. Also, in the data set with SH-SY5Y cells [2] (10 µM IPA-3 or 25 nM wortmannin, 30 min pre-incubation, 1 µM Aβ 1 h, n = 3), the “reduction in Aβ uptake with IPA-3 and wortmannin” value is on record as ~ 50%. Moreover, the “reduction in Aβ uptake with cytochalasin A or D” value in the data set with SH-SY5Y cells [2] (setting [4]) was ~ 30%.

Turning to “Aβ(1–42): Synthetic 42 residue amyloid-β peptide conjugated to HiLyte Fluor HF488 (or HF647) at the N-terminus, from Anaspec”, the “saturation of intracellular concentration” value in the data set with SH-SY5Y cells [1] was “neither Aβ(1–40) nor Aβ(1–42) appears to saturate”. For the same substance, in the data set on SH-SY5Y cells [2] (setting [3]), the “effect of CPZ on Aβ uptake” value was “impaired to a greater extent than that of Aβ(1–40)”. For the same substance, the “reduction in Aβ uptake with cytochalasin A or D” value with SH-SY5Y cells [2] (setting [4]) is ~ 70%. The “effect of dynasore on Aβ uptake” value in the data set on SH-SY5Y cells [2] (80 µM dynasore, 30 min pre-incubation, 1 µM HF488-labelled Aβ 1 h, 4 independent experiments in triplicate, ANOVA with Bonferroni) is “statistically significantly reduced”.
